The values below come from publication PMC7579925, “Complementary NAD^+ replacement strategies fail to functionally protect dystrophin-deficient muscle” (Skeletal Muscle, 2020).

This test has as its target T1, CD38 (Mus musculus, UniProt P56528).
T1 construct: recombinant soluble (extracellular) domain, expressed in and purified from Pichia pastoris
T1 sequence (P56528 45-304 limits assumed): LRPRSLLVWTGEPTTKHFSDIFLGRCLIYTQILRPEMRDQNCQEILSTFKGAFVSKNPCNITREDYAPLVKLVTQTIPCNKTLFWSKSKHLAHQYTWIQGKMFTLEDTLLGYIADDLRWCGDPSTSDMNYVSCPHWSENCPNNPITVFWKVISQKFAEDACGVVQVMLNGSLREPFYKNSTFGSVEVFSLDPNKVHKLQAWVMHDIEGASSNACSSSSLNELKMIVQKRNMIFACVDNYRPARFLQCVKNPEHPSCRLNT
Description: colorimetric base-exchange (transglycosidation) assay, dose-response. The format is biochemical.

Regarding GSK978A, the IC50 was ~ 12 ng/mL.
